Assay results taken from PubChem BioAssay AID180 (DTP/NCI, 2004).
Values joined by “and” are separate entries in the source; they are usually repeats but may differ in a detail not shown here. Equal entries are not always repeated.

Tested on: BDF1 mice, Adenocarcinoma 755 s.c., tumor weight T/C
Experiment: NCI In Vivo Anticancer Drug Screen. Data for tumor model Adenocarcinoma 755 (subcutaneous) in B6D2F1 (BDF1) mice
Details: endpoint: mean tumor weight, higher = larger tumour
Procedure, shortened: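 Tumor-bearing mice receive test compound while controls get vehicle alone. Antitumor effect is scored from survival or tumor dimensions as a T/C quotient.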

[1] = dose: 26.25 mg/kg/injection, schedule: Q01DX011 (ip), vehicle: carboxymethylcellulose (CMC)
[2] = dose: 52.5 mg/kg/injection, schedule: Q01DX011 (ip), vehicle: carboxymethylcellulose (CMC)
[3] = dose: 56.5 mg/kg/injection, schedule: Q01DX011 (ip), vehicle: carboxymethylcellulose (CMC)
[4] = dose: 105.0 mg/kg/injection, schedule: Q01DX011 (ip), vehicle: carboxymethylcellulose (CMC)
[5] = dose: 113.0 mg/kg/injection, schedule: Q01DX011 (ip), vehicle: carboxymethylcellulose (CMC)

Compound: Cc1cc2nc3c(=O)[nH]c(=O)nc-3n(CC(O)C(O)C(O)C(O)CO)c2cc1C (stereo not drawn)
- T/C (dose: 12.0 mg/kg/injection, schedule: Q01DX011 (ip), vehicle: carboxymethylcellulose (CMC)): 96 % of control and 111 % of control
- T/C (dose: 14.13 mg/kg/injection, schedule: Q01DX011 (ip), vehicle: carboxymethylcellulose (CMC)): 91 % of control
- T/C (dose: 19.0 mg/kg/injection, schedule: Q01DX011 (ip), vehicle: carboxymethylcellulose (CMC)): 90 % of control and 76 % of control
- T/C [1]: 79 % of control
- T/C (dose: 28.25 mg/kg/injection, schedule: Q01DX011 (ip), vehicle: carboxymethylcellulose (CMC)): 122 % of control
- T/C [2]: 95 % of control
- T/C [3]: 60 % of control
- T/C (dose: 62.5 mg/kg/injection, schedule: Q01DX011 (ip), vehicle: methylcellulose (MC)): 94 % of control
- T/C [4]: 116 % of control
- T/C [5]: 62 % of control
- T/C (dose: 125.0 mg/kg/injection, schedule: Q01DX011 (ip), vehicle: methylcellulose (MC)): 27 % of control
- T/C (dose: 210.0 mg/kg/injection, schedule: Q01DX011 (ip), vehicle: carboxymethylcellulose (CMC)): 101 % of control

Compound: Cn1c(=O)c2c(nc(CN3CCOCC3)n2C)n(C)c1=O
- T/C (dose: 30.0 mg/kg/injection, schedule: Q01DX011 (ip), vehicle: methylcellulose (MC)): 122 % of control
- T/C (dose: 60.0 mg/kg/injection, schedule: Q01DX011 (ip), vehicle: methylcellulose (MC)): 81 % of control
- T/C (dose: 120.0 mg/kg/injection, schedule: Q01DX011 (ip), vehicle: methylcellulose (MC)): 80 % of control
- T/C (dose: 240.0 mg/kg/injection, schedule: Q01DX011 (ip), vehicle: methylcellulose (MC)): 92 % of control

Compound: O=C1NC(=O)C2(CCCc3ccc(N(CCCl)CCCl)cc32)N1 (stereo not drawn)
- T/C (dose: 3.5 mg/kg/injection, schedule: Q01DX011 (ip), vehicle: carboxymethylcellulose (CMC)): 86 % of control
- T/C (dose: 3.5 mg/kg/injection, schedule: Q01DX011 (ip), vehicle: other): 80 % of control
- T/C (dose: 7.0 mg/kg/injection, schedule: Q01DX011 (ip), vehicle: carboxymethylcellulose (CMC)): 83 % of control
- T/C (dose: 7.0 mg/kg/injection, schedule: Q01DX011 (ip), vehicle: other): 112 % of control
- T/C (dose: 14.0 mg/kg/injection, schedule: Q01DX011 (ip), vehicle: carboxymethylcellulose (CMC)): 56 % of control
- T/C (dose: 14.0 mg/kg/injection, schedule: Q01DX011 (ip), vehicle: other): 51 % of control
- T/C (dose: 28.0 mg/kg/injection, schedule: Q01DX011 (ip), vehicle: carboxymethylcellulose (CMC)): 30 % of control
- T/C (dose: 28.0 mg/kg/injection, schedule: Q01DX011 (ip), vehicle: other): 56 % of control
- T/C (dose: 55.0 mg/kg/injection, schedule: Q01DX011 (ip), vehicle: carboxymethylcellulose (CMC)): 2 % of control
- T/C (dose: 55.0 mg/kg/injection, schedule: Q01DX011 (ip), vehicle: other): 13 % of control

Compound: C[C@]12CCC(=O)C=C1CC[C@@H]1[C@@H]2[C@@H](O)C[C@@]2(C)[C@H]1CC[C@]2(O)C(=O)COC(=O)COCC(=O)O
- T/C (dose: 50.0 mg/kg/injection, schedule: Q01DX011 (ip), vehicle: steriod suspending solution): 53 % of control
- T/C (dose: 50.0 mg/kg/injection, schedule: Q01DX011 (sc), vehicle: steriod suspending solution): 54 % of control
- T/C (dose: 100.0 mg/kg/injection, schedule: Q01DX011 (ip), vehicle: steriod suspending solution): 22 % of control
- T/C (dose: 100.0 mg/kg/injection, schedule: Q01DX011 (sc), vehicle: steriod suspending solution): 62 % of control
- T/C (dose: 200.0 mg/kg/injection, schedule: Q01DX011 (ip), vehicle: steriod suspending solution): 12 % of control
- T/C (dose: 200.0 mg/kg/injection, schedule: Q01DX011 (sc), vehicle: steriod suspending solution): 56 % of control
- T/C (dose: 400.0 mg/kg/injection, schedule: Q01DX011 (sc), vehicle: steriod suspending solution): 31 % of control

Compound: Cc1ccc2ccccc2c1CSc1ncnc2nc[nH]c12
- T/C (dose: 10.0 mg/kg/injection, schedule: Q01DX011 (ip), vehicle: methylcellulose (MC)): 38 % of control
- T/C (dose: 20.0 mg/kg/injection, schedule: Q01DX011 (ip), vehicle: methylcellulose (MC)): 40 % of control
- T/C (dose: 40.0 mg/kg/injection, schedule: Q01DX011 (ip), vehicle: methylcellulose (MC)): 11 % of control
- T/C (dose: 80.0 mg/kg/injection, schedule: Q01DX011 (ip), vehicle: methylcellulose (MC)): 9 % of control

Compound: S=P(N1CC1)(N1CC1)N1CC1
- T/C (dose: 0.3 mg/kg/injection, schedule: Q01DX011 (ip), vehicle: carboxymethylcellulose (CMC)): 60 % of control
- T/C (dose: 0.48 mg/kg/injection, schedule: Q01DX011 (ip), vehicle: carboxymethylcellulose (CMC)): 45 % of control
- T/C (dose: 0.58 mg/kg/injection, schedule: Q01DX011 (ip), vehicle: carboxymethylcellulose (CMC)): 91 % of control
- T/C (dose: 0.6 mg/kg/injection, schedule: Q01DX011 (ip), vehicle: carboxymethylcellulose (CMC)): 53 % of control and 62 % of control (2×)
- T/C (dose: 0.65 mg/kg/injection, schedule: Q01DX011 (ip), vehicle: carboxymethylcellulose (CMC)): 90 % of control
- T/C (dose: 0.75 mg/kg/injection, schedule: Q01DX011 (ip), vehicle: methylcellulose (MC)): 62 % of control
- T/C (dose: 0.8 mg/kg/injection, schedule: Q01DX011 (ip), vehicle: carboxymethylcellulose (CMC)): 53 % of control and 77 % of control
- T/C (dose: 1.3 mg/kg/injection, schedule: Q01DX011 (ip), vehicle: carboxymethylcellulose (CMC)): 54 % of control
- T/C (dose: 1.45 mg/kg/injection, schedule: Q01DX011 (ip), vehicle: carboxymethylcellulose (CMC)): 89 % of control and 99 % of control
- T/C (dose: 1.5 mg/kg/injection, schedule: Q01DX011 (ip), vehicle: methylcellulose (MC)): 37 % of control
- T/C (dose: 2.4 mg/kg/injection, schedule: Q01DX011 (ip), vehicle: carboxymethylcellulose (CMC)): 14 % of control and 29 % of control and 38 % of control
- T/C (dose: 2.6 mg/kg/injection, schedule: Q01DX011 (ip), vehicle: carboxymethylcellulose (CMC)): 35 % of control
- T/C (dose: 2.9 mg/kg/injection, schedule: Q01DX011 (ip), vehicle: carboxymethylcellulose (CMC)): 28 % of control and 52 % of control
- T/C (dose: 3.0 mg/kg/injection, schedule: Q01DX011 (ip), vehicle: methylcellulose (MC)): 14 % of control
- T/C (dose: 5.2 mg/kg/injection, schedule: Q01DX011 (ip), vehicle: carboxymethylcellulose (CMC)): 7 % of control and 9 % of control
- T/C (dose: 6.0 mg/kg/injection, schedule: Q01DX011 (ip), vehicle: methylcellulose (MC)): 6 % of control
- T/C (dose: 725.0 micrograms/kg/injection, schedule: Q01DX011 (ip), vehicle: carboxymethylcellulose (CMC)): 83 % of control
- T/C (dose: 1450.0 micrograms/kg/injection, schedule: Q01DX011 (ip), vehicle: carboxymethylcellulose (CMC)): 30 % of control
- T/C (dose: 2900.0 micrograms/kg/injection, schedule: Q01DX011 (ip), vehicle: carboxymethylcellulose (CMC)): 36 % of control
- T/C (dose: 5800.0 micrograms/kg/injection, schedule: Q01DX011 (ip), vehicle: carboxymethylcellulose (CMC)): 26 % of control

Compound: Nc1cccc2c(=O)[nH][nH]c(=O)c12
- T/C (dose: 62.5 mg/kg/injection, schedule: Q01DX011 (ip), vehicle: water): 71 % of control
- T/C (dose: 125.0 mg/kg/injection, schedule: Q01DX011 (ip), vehicle: water): 82 % of control
- T/C (dose: 250.0 mg/kg/injection, schedule: Q01DX011 (ip), vehicle: water): 59 % of control

Compound: CCSCCC(N)C(=O)O (stereo not drawn)
- T/C (dose: 13.13 mg/kg/injection, schedule: Q01DX011 (ip), vehicle: carboxymethylcellulose (CMC)): 171 % of control
- T/C (dose: 18.0 mg/kg/injection, schedule: Q01DX011 (ip), vehicle: methylcellulose (MC)): 86 % of control
- T/C (dose: 20.5 mg/kg/injection, schedule: Q01DX011 (ip), vehicle: carboxymethylcellulose (CMC)): 99 % of control
- T/C [1]: 118 % of control
- T/C (dose: 37.5 mg/kg/injection, schedule: Q01DX011 (ip), vehicle: methylcellulose (MC)): 107 % of control
- T/C [2]: 121 % of control
- T/C [3]: 46 % of control
- T/C (dose: 82.0 mg/kg/injection, schedule: Q01DX011 (ip), vehicle: carboxymethylcellulose (CMC)): 65 % of control
- T/C (dose: 90.4 mg/kg/injection, schedule: Q01DX011 (ip), vehicle: other): 156 % of control
- T/C [4]: 93 % of control
- T/C [5]: 38 % of control
- T/C (dose: 113.0 mg/kg/injection, schedule: Q01DX011 (ip), vehicle: other): 109 % of control
- T/C (dose: 150.66 mg/kg/injection, schedule: Q01DX011 (ip), vehicle: other): 37 % of control
- T/C (dose: 226.0 mg/kg/injection, schedule: Q01DX011 (ip), vehicle: carboxymethylcellulose (CMC)): 84 % of control
- T/C (dose: 226.0 mg/kg/injection, schedule: Q01DX011 (ip), vehicle: other): 49 % of control

Compound: CN(C)c1nc(Cl)nc2c1nc(Cl)n2C1CCCCO1 (stereo not drawn)
- T/C (dose: 30.0 mg/kg/injection, schedule: Q01DX011 (ip), vehicle: carboxymethylcellulose (CMC)): 102 % of control
- T/C (dose: 60.0 mg/kg/injection, schedule: Q01DX011 (ip), vehicle: carboxymethylcellulose (CMC)): 85 % of control
- T/C (dose: 120.0 mg/kg/injection, schedule: Q01DX011 (ip), vehicle: carboxymethylcellulose (CMC)): 68 % of control
